Structures are written as SMILES. “And” between values parts separate entries of the source, which are not always exact repeats. Equal entries are not always repeated.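 Results reflect a 48-hour exposure of cells in 96-well plates to compound at five concentrations. GI50 marks 50% less growth. TGI denotes the concentration required for complete inhibition of growth.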

For orientation: GI50 means the concentration at which growth is held to half of that of the control. For orientation: TGI means the concentration giving total growth inhibition. A higher TGI goes with lower sensitivity of the cells.

Among the test systems are A498 renal; HOP-92 NSCLC; HS 578T breast; K-562 leukemia; MCF7 breast; OVCAR-8 ovarian; RPMI-8226 leukemia; RXF 393 renal; SK-OV-3 ovarian; TK-10 renal.
Holding throughout (assay): DTP human tumour cell line panel, 48 h

Consider `CCCCCCCCCC[C@@H](O)[C@H]1CC[C@H]([C@H]2CC[C@H]([C@H](O)CCCCCCCCCC[C@@H]3CC(CC(C)=O)C(=O)O3)O2)O1` (stereo partly drawn), for which the GI50 with A498 renal is 7.44 µM; in the assay on HOP-92 NSCLC, 2410 nM; with HS 578T breast, 8.36 µM; in the assay on K-562 leukemia, 884 nM; with MCF7 breast it was 1.85 µM; in the assay on RPMI-8226 leukemia it was 1390 nM. Moreover, the GI50 in the assay on TK-10 renal is 2330 nM. In addition, the total growth inhibition concentration (TGI) was more than 50 µM in the assay on A498 renal; 8.42 µM and > 50 µM in the assay on HOP-92 NSCLC; more than 50 µM in the assay on HS 578T breast; more than 50 µM in the assay with K-562 leukemia; more than 50 µM in the assay on MCF7 breast; more than 50 µM in the assay with OVCAR-8 ovarian. Further, the total growth inhibition concentration (TGI) in the assay with RPMI-8226 leukemia, with RXF 393 renal, with SK-OV-3 ovarian and with TK-10 renal was more than 50 µM in each case.

In the case of `CC(=O)NC1C(OCc2ccccc2)OC(CO)C(O)C1OCC(=O)N[C@@H](C)C(=O)N[C@H](CCC(=O)NCCNCCNc1c2ccccc2nc2cccc([N+](=O)[O-])c12)C(N)=O` (stereo partly drawn), the total growth inhibition concentration (TGI) in the assay on A498 renal is 48.1 µM; with HOP-92 NSCLC, 66.5 µM; in the assay with HS 578T breast, more than 100 µM; in the assay on K-562 leukemia, more than 100 µM; with MCF7 breast, more than 100 µM; in the assay on OVCAR-8 ovarian it was more than 100 µM. The TGI in the assay with RPMI-8226 leukemia was 73.3 µM; with RXF 393 renal, 64 µM; in the assay with SK-OV-3 ovarian, more than 100 µM; in the assay with TK-10 renal it was more than 100 µM.

`COc1ccc2c(c1)c1c(n2CCN2CCOCC2)-c2ccccc2CC1`: the total growth inhibition concentration (TGI) in the assay with A498 renal is more than 100 µM; in the assay on HOP-92 NSCLC, more than 100 µM; in the assay on HS 578T breast it was 42.8 µM; with K-562 leukemia, 40.2 µM; in the assay on MCF7 breast, more than 100 µM; in the assay with OVCAR-8 ovarian, more than 100 µM. The concentration for total growth inhibition (TGI) is 64.2 µM in the assay with RPMI-8226 leukemia, more than 100 µM in the assay on RXF 393 renal, more than 100 µM in the assay with SK-OV-3 ovarian and more than 100 µM with TK-10 renal.

As to `O=C(O)c1ccc(NC(c2ccccc2)c2ccc3cccnc3c2O)cc1` (stereo not drawn), the TGI was 78.4 µM with A498 renal; more than 100 µM in the assay on HOP-92 NSCLC; more than 73.7 µM in the assay on HS 578T breast; more than 49.8 µM in the assay with K-562 leukemia; more than 80.7 µM in the assay with MCF7 breast; more than 41.5 µM with OVCAR-8 ovarian. Besides, the TGI was 28 µM with RPMI-8226 leukemia, 28.8 µM with RXF 393 renal, more than 100 µM in the assay with SK-OV-3 ovarian and 71.6 µM with TK-10 renal.

As to `COC(=O)C1=C(C(=O)OC)C2OC1C1C2C2(C)C(C)=C(C)C1(C)S2=O` (stereo not drawn), the TGI with A498 renal was 68.4 µM; with HOP-92 NSCLC, 32.7 µM; in the assay with HS 578T breast it was 51.4 µM; in the assay with K-562 leukemia, more than 100 µM; in the assay on MCF7 breast it was more than 45.3 µM; with OVCAR-8 ovarian it was more than 100 µM. Besides, the TGI in the assay with RPMI-8226 leukemia was 31 µM; in the assay with RXF 393 renal it was 10.6 µM; in the assay on SK-OV-3 ovarian, more than 100 µM; in the assay on TK-10 renal, 29.8 µM.

In the case of `c1sc(NC2=NCCO2)c2c1CCCC2`, the TGI in the assay on A498 renal, in the assay with HOP-92 NSCLC, in the assay on HS 578T breast, in the assay on K-562 leukemia, in the assay with MCF7 breast and with OVCAR-8 ovarian was more than 100 µM throughout. Also, the TGI in the assay with RPMI-8226 leukemia, in the assay with RXF 393 renal, with SK-OV-3 ovarian and with TK-10 renal was more than 100 µM throughout.

`COc1ccc(N2C(=O)C3c4[nH]c5ccc([N+](=O)[O-])cc5c4C4CCC(C(C)(C)C)CC4C3C2=O)cc1` (stereo not drawn): the total growth inhibition concentration (TGI) with A498 renal is 7.56 µM; in the assay on HOP-92 NSCLC, 45.7 µM; in the assay with HS 578T breast, more than 100 µM; in the assay on K-562 leukemia it was 7.33 µM; in the assay on MCF7 breast, more than 100 µM; with OVCAR-8 ovarian it was more than 100 µM. The TGI in the assay with RPMI-8226 leukemia is 89.5 µM; with RXF 393 renal it was 9.34 µM; in the assay on SK-OV-3 ovarian, more than 100 µM; with TK-10 renal, more than 100 µM.

For `COc1ccc(Nc2c(C#N)c3n(c4ccccc24)c2ccccc2[n+]3C)cc1OC`, the TGI with A498 renal is 20.4 µM; with HOP-92 NSCLC it was more than 34.2 µM; in the assay on HS 578T breast it was 11.3 µM; in the assay with K-562 leukemia it was more than 20 µM; in the assay with MCF7 breast, 21.7 µM; with OVCAR-8 ovarian, 18.5 µM. For the same compound, the TGI in the assay on RPMI-8226 leukemia is more than 25.1 µM; in the assay on RXF 393 renal, 9.46 µM; with SK-OV-3 ovarian it was 23.3 µM; in the assay with TK-10 renal it was 12.4 µM.

Regarding `COc1cc2oc(-c3ccc(O)cc3)c(OC3OC(C)C(O)C(O)C3O)c(=O)c2c(O)c1OC` (stereo not drawn), the concentration for total growth inhibition (TGI) in the assay on A498 renal, in the assay with HOP-92 NSCLC, with HS 578T breast, with K-562 leukemia, in the assay on MCF7 breast and in the assay with OVCAR-8 ovarian was more than 100 µM throughout. In addition, the concentration for total growth inhibition (TGI) in the assay on RPMI-8226 leukemia, with RXF 393 renal, in the assay on SK-OV-3 ovarian and in the assay on TK-10 renal was more than 100 µM in each case.

As for `Cc1ccc2c(c1C)CC1(Cc3c(ccc4c3CCC4)C1=O)C2=O` (stereo not drawn), the TGI in the assay on A498 renal, with HOP-92 NSCLC, in the assay on HS 578T breast, in the assay on K-562 leukemia, with MCF7 breast and with OVCAR-8 ovarian was more than 100 µM each time. Besides, the TGI with RPMI-8226 leukemia, in the assay with RXF 393 renal, in the assay on SK-OV-3 ovarian and in the assay on TK-10 renal was more than 100 µM in each case.

Consider `c1cc(-c2cnc(-c3ccc4c(c3)CCCO4)o2)ccn1`, for which the total growth inhibition concentration (TGI) in the assay with A498 renal worked out at 25.8 µM; in the assay on HOP-92 NSCLC, 49.4 µM; in the assay with HS 578T breast, 42.2 µM; in the assay with K-562 leukemia, 22.8 µM; in the assay with MCF7 breast, 28.7 µM; in the assay on OVCAR-8 ovarian it was 27.6 µM. The total growth inhibition concentration (TGI) is 23.6 µM with RPMI-8226 leukemia, 43.7 µM with RXF 393 renal, 57.3 µM in the assay on SK-OV-3 ovarian and 42.1 µM with TK-10 renal.

With `COC(=O)C1(Cc2ccccc2)Cc2cc3c(cc2C1=O)CCC3` (stereo not drawn), the total growth inhibition concentration (TGI) in the assay on A498 renal is 82 µM; in the assay on HOP-92 NSCLC, 42.3 µM; with HS 578T breast, more than 100 µM; with K-562 leukemia it was 81.8 µM; in the assay with MCF7 breast, 42.9 µM; in the assay with OVCAR-8 ovarian, more than 100 µM. For the same compound, the TGI in the assay with RPMI-8226 leukemia is 52.5 µM; with RXF 393 renal it was more than 100 µM; in the assay on SK-OV-3 ovarian, more than 100 µM; in the assay with TK-10 renal, more than 100 µM.

Take `Cc1c(S(=O)(=O)c2ccccc2)c(N)n(Cc2ccccc2)c1C`: the TGI in the assay with A498 renal, in the assay with HOP-92 NSCLC, with HS 578T breast, with K-562 leukemia, with MCF7 breast and in the assay on OVCAR-8 ovarian was more than 100 µM throughout. The total growth inhibition concentration (TGI) in the assay with RPMI-8226 leukemia, in the assay with RXF 393 renal, with SK-OV-3 ovarian and in the assay on TK-10 renal was more than 100 µM each time.

Consider `CC(C)=CCN1CC(C)C(=O)Nc2cc(Cl)ccc21` (stereo not drawn), for which the TGI in the assay with A498 renal is more than 100 µM; in the assay on HOP-92 NSCLC, 29 µM; in the assay with HS 578T breast, more than 100 µM; in the assay with K-562 leukemia, more than 100 µM; in the assay with MCF7 breast, 44.6 µM; with OVCAR-8 ovarian, 79.4 µM. Further, the TGI in the assay with RPMI-8226 leukemia was more than 100 µM; in the assay with RXF 393 renal, more than 100 µM; with SK-OV-3 ovarian it was 84.4 µM; with TK-10 renal it was 63.8 µM.

Take `COc1ccc(-c2c(C#N)c(N)n(C3OC(CO)C(O)C(O)C3O)c(=S)c2C#N)cc1` (stereo not drawn): the concentration for total growth inhibition (TGI) in the assay with A498 renal is more than 100 µM; in the assay on HOP-92 NSCLC, more than 100 µM; in the assay with HS 578T breast, 47.4 µM; in the assay on K-562 leukemia, more than 100 µM; in the assay on MCF7 breast, more than 100 µM; with OVCAR-8 ovarian it was more than 100 µM. Further, the TGI in the assay on RPMI-8226 leukemia, with RXF 393 renal, with SK-OV-3 ovarian and in the assay on TK-10 renal was more than 100 µM each time. Besides, the GI50 with MCF7 breast was > 100 µM and 38.4 µM.

Turning to `CC(=O)OCC1OC(N2C(=O)/C(=C\c3ccc(Cl)cc3)C(N)=Nc3ccccc32)C(OC(C)=O)C(OC(C)=O)C1OC(C)=O` (stereo not drawn), the TGI in the assay with A498 renal is more than 100 µM; in the assay with HOP-92 NSCLC it was 45.2 µM; in the assay with HS 578T breast, more than 100 µM; in the assay with K-562 leukemia, 33.1 µM; in the assay on MCF7 breast, 33.1 µM; in the assay with OVCAR-8 ovarian, 26.7 µM. The TGI is 13.8 µM in the assay with RPMI-8226 leukemia, 27.9 µM with RXF 393 renal, more than 100 µM in the assay with SK-OV-3 ovarian and 88.2 µM with TK-10 renal.

As for `COc1ncc(C=C(C#N)C#N)c(OC)n1`, the TGI in the assay on A498 renal was more than 100 µM; in the assay on HOP-92 NSCLC it was more than 100 µM; in the assay with HS 578T breast it was more than 100 µM; in the assay with K-562 leukemia, more than 100 µM; with MCF7 breast, more than 100 µM; with OVCAR-8 ovarian, 62 µM. In addition, the TGI in the assay on RPMI-8226 leukemia was 86 µM; with RXF 393 renal, more than 100 µM; in the assay on SK-OV-3 ovarian, more than 100 µM; with TK-10 renal it was more than 100 µM.

Regarding `Clc1nc(Cl)nc(NC23CC4CC(CC(C4)C2)C3)n1`, the TGI is more than 58.3 µM with A498 renal; 35.5 µM in the assay on HOP-92 NSCLC; 28.9 µM in the assay with HS 578T breast; 33.7 µM with K-562 leukemia; more than 64.3 µM in the assay with MCF7 breast; 34.9 µM in the assay on OVCAR-8 ovarian. The concentration for total growth inhibition (TGI) is 38.4 µM with RPMI-8226 leukemia, 32.1 µM in the assay with RXF 393 renal, more than 57.1 µM in the assay on SK-OV-3 ovarian and 32.6 µM in the assay with TK-10 renal.

Values taken from PubChem BioAssay (NCI).
